This data set is described as follows: Dissolution of the crystalline solid in water. Conditions: weighed amount of crystalline mass dissolved in water. The format is physicochemical. Here is the method: The slurry was stirred and 50% NaOH (102.7 g) was slowly added as the flask was chilled in an ice bath to keep the temperature of the flask contents at around 75° F. Using a dropping funnel, elemental bromine (67.3 g) was dispensed at a rate of about one drop per second to the reaction medium, also with stirring and cooling to maintain a reaction temperature of 68° F. When the bromine addition was complete, the pH of the reaction medium was measured to be 1.97. A single charge of powdered trichloroisocyanuric acid (90.4% available Cl2) (33.1 g) was then delivered to the reaction medium through one of the necks of the flask. Stirring and cooling continued as normal as a fine powdery precipitate of cyanuric acid developed. After 10 minutes, 50% NaOH (11 g) was added dropwise in order to diminish the amount of bromine vapors that were fuming from the reaction medium. The cyanuric acid precipitate was then removed by vacuum filtration. […] The supernatant liquid above the crystals analyzed as 22.7% as Br2 (10.1% as Cl2), indicating the aqueous phase was losing active ingredient at the expense of crystal growth. […]

For `O.O=S(=O)([O-])NBr.[Na+]` [hydrated sodium N-bromosulfamate], the dissolution in water result was “dissolved rapidly and completely”.
